Reference: patent publication US20240350503A1, “COMPOUNDS FOR TREATMENT OF VIRAL INFECTIONS BY NEUROTROPIC VIRUS” (priority 2021, published 2024)
“Also recorded” adds a separate entry of the source.

System: SARS-CoV-2
Format: cell-based, SARS-CoV-2 alpha variant

Question: With `c1ccc(-c2ccc(CNc3nc(-c4ccccn4)nnc3-c3ccccc3)cc2)cc1` [ML228] as the compound, how does the “SARS-CoV-2 replication (virus N2 RNA level)” value read?
Answer: The value was “strongly reduced; also recorded: significantly decreased”.
